# Data: PubChem BioAssay AID1918939 (Molecular Pharmacology Branch, DTP, NCI, 2023)
# pIC50: −log10 of the molar value.
# Tested on: 653999-131-R-J2-PDC complex spheroid viability
# Experiment: Anticancer human tumor 653999-131-R-J2-PDC patient-derived lung adenocarcinoma cell line growth inhibition
# Details: for pIC50: curve of first compound; for viability, T/C: stronger effect = lower value
# From the text: Multicellular complex tumor spheroid response to LSD1 Inhibitor Iadademstat in combination with a variety of drugs and investigational agents in selected tumor cell lines
# The current study was undertaken to assess response to LSD1 inhibitors in combination with standard-of-care drugs and investigational agents in solid tumor complex spheroid models as well as in the K-562 leukemia. Complex spheroids include a stromal component modeled by human endothelial cells (HUVEC) and fibroblasts modeled by human mesenchymal stem cells (MSCs). The concentration ranges selected for each drug and investigational agent were based upon clinically achievable concentrations if the clinical Cmax of the agent was known.
# Compounds. The drugs and investigational agents used in this study are listed on Table 1. All of the agents used, including staurosporine (NSC755774) and gemcitabine (NSC613327), were obtained from the Developmental Therapeutics Program, NCI. FDA-approved anticancer drugs are available from the NCI at http://dtp.nci.nih.gov/branches/dscb/oncology_drugset_explanation.html. Drugs and investigational agents were >95% pure by proton nuclear magnetic resonance (NMR) and liquid chromatography/mass spectrometry (LC/MS). Stock solutions were prepared at 400x in DMSO, stored at -70 degrees C, and diluted in fresh medium prior to their use. The final concentration of DMSO in cell culture wells never exceeded 0.25% (v/v). The FDA-approved anticancer drug set is available from the Developmental Therapeutics Program at https://dtp.cancer.gov/organization/dscb/obtaining/available_plates.htm. All drugs and investigational agents were tested over a range starting from a high concentration at or near the clinical Cmax and decreasing in half-log increments. If the clinical Cmax for an agent had not been determined, the highest concentration tested was 10 microM.
# Cell Lines. The patient-derived cancer cell (PDC) lines: 292921-168-R-J2-PDC, K24384-001-R-PDC, and 521955-158-R2-J5-PDC pancreatic carcinomas, 556581-035-R-J1 ovarian carcinoma, 324938-238-R-J1-PDC, 855422-203-R-J1-PDC and 883617-216-R-J1-PDC urothelial bladder carcinomas, 743489-274-T-PDC renal cell carcinoma, 138582-R-J1 Merkel cell tumor, K60290-347-R-J1 and K57222-313-R-J1-PDC glioblastomas, 653999-131-R-J2-PDC, LG0703-F948-PDC, and 349418-098-R-PDC non-small cell lung carcinomas, 885512-296-R-J2-PDC, 171881-019-R-J1-PDC breast carcinomas and 186277-243-T-J2-PDC and 233499-124-R-J2-PDC colon carcinomas were obtained from the NCI Patient-Derived Models Repository (PDMR, https://pdmr.cancer.gov). The established cell lines NCI/ADR-RES (RRID:CVCL_14520 and OVCAR-5 (RRID:CVCL_1628) ovarian carcinomas, 786-O (RRID:CVCL_1051) and A498 (RRID:CVCL_A498) renal cell carcinoma, NCI-H211 (ATCC, cat. CRL-5824; RRID:CVCL_1529), NCI-H196 (ATCC, cat. CRL-5823, RRID:CVCL_1509), SW 1271 (ATCC, cat. CRL-2177, RRID:CVCL_1716) and NCI-H1876 (ATCC, cat. CRL-5902, RRID:CVCL_1503) small cell lung carcinomas, MDA-MB-231 (RRID:CVCL_0062) and MDA-MB-468 (RRID:CVCL_0419)breast carcinomas (10-12). Pooled donor human umbilical vein endothelial cells (HUVEC, Lonza, cat. CC-2519) and human mesenchymal stem cells (hMSC, Lonza, cat. PT-2501) were purchased from Lonza (Walkersville, MD).
# Cell Culture. All cells were maintained in an incubator at 37 degrees C and 5% CO2 with 95% humidity. The PDC lines were cultured according to standard operating procedures established by the NCI PDMR (https://pdmr.cancer.gov). Briefly all PDCs were thawed and cultured in Matrigel-coated flasks prepared with a working solution of 1X Ham's F-12 nutrient mix, without supplementation (Invitrogen, Waltham, MA, cat. 11765054), 100 U/mL penicillin-streptomycin (Invitrogen, cat. 15140122), and 2.5% Matrigel (Corning Inc., Corning, NY, cat. 354248) for the first three passages. […]
# 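Also: spheroids exposed to agents for seven days before readout.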
structure (smiles),measurement,setting,value
CC[C@@]1(O)C(=O)OCc2c1cc1n(c2=O)Cc2cc3c(CN(C)C)c(O)ccc3nc2-1 + NC1CC1c1ccc(-c2cccc(O)c2)cc1,pIC50,second compound 0.1 µM,7.94
same,pIC50,second compound 0.316 µM,8.04
same,pIC50,second compound 1 µM,8.03
same,pIC50,second compound 3.16 µM,7.95
same,pIC50,second compound 10 µM,7.86
same,"viability, T/C","second compound 0.1 µM, first compound 0.000316 µM",114%
same,"viability, T/C","second compound 0.1 µM, first compound 0.001 µM",92.8%
same,"viability, T/C","second compound 0.1 µM, first compound 0.00316 µM",85%
same,"viability, T/C","second compound 0.1 µM, first compound 0.01 µM",49.6%
same,"viability, T/C","second compound 0.1 µM, first compound 0.0316 µM",33.6%
same,"viability, T/C","second compound 0.1 µM, first compound 0.1 µM",27.9%
same,"viability, T/C","second compound 0.316 µM, first compound 0.000316 µM",111%
same,"viability, T/C","second compound 0.316 µM, first compound 0.001 µM",108%
same,"viability, T/C","second compound 0.316 µM, first compound 0.00316 µM",83.8%
same,"viability, T/C","second compound 0.316 µM, first compound 0.01 µM",45.6%
same,"viability, T/C","second compound 0.316 µM, first compound 0.0316 µM",35.6%
same,"viability, T/C","second compound 0.316 µM, first compound 0.1 µM",23.2%
same,"viability, T/C","second compound 1 µM, first compound 0.000316 µM",82.6%
same,"viability, T/C","second compound 1 µM, first compound 0.001 µM",101%
same,"viability, T/C","second compound 1 µM, first compound 0.00316 µM",79.6%
same,"viability, T/C","second compound 1 µM, first compound 0.01 µM",47.4%
same,"viability, T/C","second compound 1 µM, first compound 0.0316 µM",35.8%
same,"viability, T/C","second compound 1 µM, first compound 0.1 µM",25.5%
same,"viability, T/C","second compound 3.16 µM, first compound 0.000316 µM",91.6%
same,"viability, T/C","second compound 3.16 µM, first compound 0.001 µM",85.8%
same,"viability, T/C","second compound 3.16 µM, first compound 0.00316 µM",87.1%
same,"viability, T/C","second compound 3.16 µM, first compound 0.01 µM",52%
same,"viability, T/C","second compound 3.16 µM, first compound 0.0316 µM",31.9%
same,"viability, T/C","second compound 3.16 µM, first compound 0.1 µM",27.9%
same,"viability, T/C","second compound 10 µM, first compound 0.000316 µM",86.9%
same,"viability, T/C","second compound 10 µM, first compound 0.001 µM",87.6%
same,"viability, T/C","second compound 10 µM, first compound 0.00316 µM",80.7%
same,"viability, T/C","second compound 10 µM, first compound 0.01 µM",54.9%
same,"viability, T/C","second compound 10 µM, first compound 0.0316 µM",36.1%
same,"viability, T/C","second compound 10 µM, first compound 0.1 µM",26.4%
COc1cc(C2c3cc4c(cc3C(OC3OC5COC(C)OC5C(O)C3O)C3COC(=O)C23)OCO4)cc(OC)c1O (stereo not given) + NC1CC1c1ccc(-c2cccc(O)c2)cc1,pIC50,second compound 0.1 µM,6.78
same,pIC50,second compound 0.316 µM,6.87
same,pIC50,second compound 1 µM,6.96
same,pIC50,second compound 3.16 µM,7.01
same,pIC50,second compound 10 µM,6.61
same,"viability, T/C","second compound 0.1 µM, first compound 0.00949 µM",83.5%
same,"viability, T/C","second compound 0.1 µM, first compound 0.03 µM",67.2%
same,"viability, T/C","second compound 0.1 µM, first compound 0.0949 µM",57.9%
same,"viability, T/C","second compound 0.1 µM, first compound 0.3 µM",41.4%
same,"viability, T/C","second compound 0.1 µM, first compound 0.949 µM",37%
same,"viability, T/C","second compound 0.1 µM, first compound 3 µM",27.8%
same,"viability, T/C","second compound 0.316 µM, first compound 0.00949 µM",75.4%
same,"viability, T/C","second compound 0.316 µM, first compound 0.03 µM",62.9%
same,"viability, T/C","second compound 0.316 µM, first compound 0.0949 µM",50.3%
same,"viability, T/C","second compound 0.316 µM, first compound 0.3 µM",45.9%
same,"viability, T/C","second compound 0.316 µM, first compound 0.949 µM",34.8%
same,"viability, T/C","second compound 0.316 µM, first compound 3 µM",25.2%
same,"viability, T/C","second compound 1 µM, first compound 0.00949 µM",75.7%
same,"viability, T/C","second compound 1 µM, first compound 0.03 µM",64%
same,"viability, T/C","second compound 1 µM, first compound 0.0949 µM",51.8%
same,"viability, T/C","second compound 1 µM, first compound 0.3 µM",38.3%
same,"viability, T/C","second compound 1 µM, first compound 0.949 µM",35.9%
same,"viability, T/C","second compound 1 µM, first compound 3 µM",26.1%
same,"viability, T/C","second compound 3.16 µM, first compound 0.00949 µM",77.3%
same,"viability, T/C","second compound 3.16 µM, first compound 0.03 µM",66.2%
same,"viability, T/C","second compound 3.16 µM, first compound 0.0949 µM",49.4%
same,"viability, T/C","second compound 3.16 µM, first compound 0.3 µM",39.5%
same,"viability, T/C","second compound 3.16 µM, first compound 0.949 µM",32.8%
same,"viability, T/C","second compound 3.16 µM, first compound 3 µM",30.5%
same,"viability, T/C","second compound 10 µM, first compound 0.00949 µM",73%
same,"viability, T/C","second compound 10 µM, first compound 0.03 µM",65.9%
same,"viability, T/C","second compound 10 µM, first compound 0.0949 µM",61.5%
same,"viability, T/C","second compound 10 µM, first compound 0.3 µM",46.3%
same,"viability, T/C","second compound 10 µM, first compound 0.949 µM",39%
same,"viability, T/C","second compound 10 µM, first compound 3 µM",31.1%
